Data from patent US20260001928A1 (CORTERIA PHARMACEUTICALS, priority 2022, published 2026).
*1 amine or outer side, *2 acyl side, *3 side chain or, on linkers, in order; H or OH if unused. Where a SMILES comes first, the peptide text is derived from it. Side-chain parts run from the residue outwards. [ ]: non-standard residue; d: D form. The star is where a group is joined. C20 diacid = O=C(O)CCCCCCCCCCCCCCCCCCC(=O)*; C18 diacid = O=C(O)CCCCCCCCCCCCCCCCC(=O)*; C16 diacid = O=C(O)CCCCCCCCCCCCCCC(=O)*; γGlu = O=C(O)[C@H](CCC(=O)[*:2])N[*:1]; NMeI = CC[C@H](C)[C@H](NC)C(=O)O; Api = NC1(C(=O)O)CCNCC1; AEEA = NCCOCCOCC(=O)O; Aib = CC(C)(N)C(=O)O

Assays:
CFR1R receptor = target: T1, CFR1R receptor (Homo sapiens, UniProt P34998); test: Activity at anti-target CFR1R receptor, cAMP assay in CRF1R-overexpression CHO-K1 cells; assay type: cell-based; details: 100% = Sauvagine at 100 nM; for EC50: cAMP
T1 construct: host or cells: CHO-K1 (clone 2)
T1 sequence (P34998 24-415): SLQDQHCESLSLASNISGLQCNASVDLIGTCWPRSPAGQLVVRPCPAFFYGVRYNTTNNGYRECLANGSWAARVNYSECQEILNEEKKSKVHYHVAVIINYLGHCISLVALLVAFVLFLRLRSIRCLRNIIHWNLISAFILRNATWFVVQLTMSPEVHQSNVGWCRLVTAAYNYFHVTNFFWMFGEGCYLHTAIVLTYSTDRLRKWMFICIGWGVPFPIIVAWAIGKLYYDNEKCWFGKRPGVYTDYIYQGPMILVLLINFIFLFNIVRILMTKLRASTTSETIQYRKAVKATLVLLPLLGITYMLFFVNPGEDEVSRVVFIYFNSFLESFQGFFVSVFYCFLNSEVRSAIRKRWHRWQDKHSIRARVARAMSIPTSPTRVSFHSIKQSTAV
In short: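 cAMP readout in CRF1R-overexpressing CHO-K1 cells (clone 2), run as for the TeloHAEC assay at 4000 cells/well final. Cells came from cryopreserved banks. Sauvagine at 100 nM defined 100% activation.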

human CRF2a receptor = target: T2, human CRF2a receptor (Homo sapiens, UniProt Q13324); test: Activity at human CRF2a receptor, cAMP functional assay in TeloHEAC cells; assay type: cell-based; details: TeloHEAC cells stably expressing human CRF2a receptor, relative to urocortin 2 (100 nM = 100%)
T2 construct: expressed in transfected cells; host or cells: TeloHEAC cells
T2 sequence (Q13324 1-411): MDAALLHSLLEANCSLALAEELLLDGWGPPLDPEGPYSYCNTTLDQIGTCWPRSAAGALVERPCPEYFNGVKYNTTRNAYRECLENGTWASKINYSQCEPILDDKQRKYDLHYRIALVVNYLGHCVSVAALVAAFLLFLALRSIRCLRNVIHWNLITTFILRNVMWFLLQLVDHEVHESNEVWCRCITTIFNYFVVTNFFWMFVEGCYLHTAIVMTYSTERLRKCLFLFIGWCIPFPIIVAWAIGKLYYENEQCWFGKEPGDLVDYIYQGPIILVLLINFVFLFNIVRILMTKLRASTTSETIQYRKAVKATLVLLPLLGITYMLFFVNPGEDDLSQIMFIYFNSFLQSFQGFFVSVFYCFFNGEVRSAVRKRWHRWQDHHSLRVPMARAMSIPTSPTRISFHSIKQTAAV
In short: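 TeloHEAC cells stably expressing human CRF2a (10000 cells/well) were treated with 16-point 1:2 compound dilutions in HBSS/20 mM HEPES with IBMX for 30 min at 37° C. cAMP was read by HTRF (665/620 nm ratio). EC50 was the concentration giving 50% activation, with 100 nM urocortin 2 set as 100%.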

Row | SMILES | Emax (% I) (CFR1R receptor) | EC50 (CFR1R receptor) | EC50 (human CRF2a receptor)
1 | CC[C@H](C)[C@H](NC)C(=O)N[C@H](C(=O)N[C@@H](CC(C)C)C(=O)N[C@@H](CO)C(=O)N[C@@H](CC(C)C)C(=O)N[C@@H](CC(=O)O)C(=O)N[C@@H](C(=O)N1CCC[C@H]1C(=O)N[C@H](C(=O)N[C@@H](CCCCN)C(=O)N[C@@H](CC(C)C)C(=O)N[C@@H](CCCCNC(=O)CC[C@H](NC(=O)CCCCCCCCCCCCCCC(=O)O)C(=O)O)C(=O)N[C@@H](CCCCN)C(=O)N[C@H](C(=O)N[C@@H](CC(C)C)C(=O)N[C@@H](CC(C)C)C(=O)N[C@@H](CCC(=O)O)C(=O)N[C@@H](CCC(N)=O)C(=O)N[C@@H](CCC(=O)O)C(=O)N[C@@H](CCCCN)C(=O)N[C@@H](CCC(N)=O)C(=O)N[C@@H](CCCCN)C(=O)N[C@@H](CCCCN)C(=O)N[C@@H](CCC(N)=O)C(=O)N[C@@H](CCCNC(=N)N)C(=O)N[C@@H](CCC(=O)O)C(=O)N[C@@H](CCC(N)=O)C(=O)N[C@@H](C)C(=O)N[C@@H](CCC(=O)O)C(=O)N[C@H](C(=O)N[C@@H](CC(N)=O)C(=O)NC1(C(=O)N[C@@H](CCC(N)=O)C(=O)N[C@H](C(=O)N[C@@H](CC(C)C)C(=O)N[C@@H](C)C(=O)N[C@@H](CCC(N)=O)C(=O)N[C@H](C(N)=O)C(C)C)[C@@H](C)CC)CCNCC1)[C@@H](C)O)[C@@H](C)CC)[C@@H](C)CC)C(C)C)C(C)C [compound 72] (H-[NMeI]VLSLD[dV]PIKLK([γGlu-C16 diacid])KILLEQEKQKKQREQAETN[Api]QILAQV-NH2) | 18 % I | > 250 nM | 0.14 nM
2 | CC[C@H](C)[C@H](NC(C)=O)C(=O)N[C@H](C(=O)N[C@@H](CC(C)C)C(=O)N[C@@H](CO)C(=O)N[C@@H](CC(C)C)C(=O)N[C@@H](CC(=O)O)C(=O)N[C@@H](C(=O)N1CCC[C@H]1C(=O)N[C@H](C(=O)N[C@@H](CCCCN)C(=O)N[C@@H](CC(C)C)C(=O)N[C@@H](CCCCNC(=O)CC[C@H](NC(=O)CCCCCCCCCCCCCCC(=O)O)C(=O)O)C(=O)N[C@@H](CCCCN)C(=O)N[C@H](C(=O)N[C@@H](CC(C)C)C(=O)N[C@@H](CC(C)C)C(=O)N[C@@H](CCC(=O)O)C(=O)N[C@@H](CCC(N)=O)C(=O)N[C@@H](CCC(=O)O)C(=O)N[C@@H](CCCCN)C(=O)N[C@@H](CCC(N)=O)C(=O)N[C@@H](CCCCN)C(=O)N[C@@H](C)C(=O)N[C@@H](CCC(N)=O)C(=O)N[C@@H](CCCNC(=N)N)C(=O)N[C@@H](CCC(=O)O)C(=O)N[C@@H](CCC(N)=O)C(=O)N[C@@H](C)C(=O)N[C@@H](CCC(=O)O)C(=O)N[C@H](C(=O)N[C@@H](CC(N)=O)C(=O)NC1(C(=O)N[C@@H](CCC(N)=O)C(=O)N[C@H](C(=O)N[C@@H](CC(C)C)C(=O)N[C@@H](C)C(=O)N[C@@H](CCC(N)=O)C(=O)N[C@H](C(N)=O)C(C)C)[C@@H](C)CC)CCNCC1)[C@@H](C)O)[C@@H](C)CC)[C@@H](C)CC)C(C)C)C(C)C [compound 152] (Ac-IVLSLD[dV]PIKLK([γGlu-C16 diacid])KILLEQEKQKAQREQAETN[Api]QILAQV-NH2) | 25 % I | > 250 nM | 0.51 nM
3 | CC[C@H](C)[C@H](NC(=O)[C@H](CCC(N)=O)NC(=O)C(C)(C)NC(=O)[C@H](CC(N)=O)NC(=O)[C@@H](NC(=O)[C@H](CCC(=O)O)NC(=O)[C@H](C)NC(=O)[C@H](CCC(N)=O)NC(=O)[C@H](CCC(=O)O)NC(=O)[C@H](CCCNC(=N)N)NC(=O)[C@H](CCC(N)=O)NC(=O)[C@H](CCCCN)NC(=O)[C@H](CCCCN)NC(=O)[C@H](CCC(N)=O)NC(=O)[C@H](CCCCN)NC(=O)[C@H](CCC(=O)O)NC(=O)[C@H](CCC(N)=O)NC(=O)[C@H](CCC(=O)O)NC(=O)[C@H](CC(C)C)NC(=O)[C@H](CC(C)C)NC(=O)[C@@H](NC(=O)[C@H](CCCCN)NC(=O)[C@H](CCCCNC(=O)CC[C@H](NC(=O)CCCCCCCCCCCCCCC(=O)O)C(=O)O)NC(=O)[C@H](CC(C)C)NC(=O)[C@H](CCCCN)NC(=O)[C@@H](NC(=O)[C@@H]1CCCN1C(=O)[C@H](NC(=O)[C@H](CC(=O)O)NC(=O)[C@H](CC(C)C)NC(=O)[C@H](CO)NC(=O)[C@H](CC(C)C)NC(=O)[C@@H](NC(C)=O)C(C)C)C(C)C)[C@@H](C)CC)[C@@H](C)CC)[C@@H](C)O)C(=O)N[C@@H](CC(C)C)C(=O)N[C@@H](C)C(=O)N[C@@H](CCC(N)=O)C(=O)N[C@H](C(N)=O)C(C)C [compound 45] (Ac-VLSLD[dV]PIKLK([γGlu-C16 diacid])KILLEQEKQKKQREQAETN[Aib]QILAQV-NH2) | 5 % I | > 250 nM | 0.96 nM
4 | CC[C@H](C)[C@H](NC(C)=O)C(=O)N[C@H](C(=O)N[C@@H](CC(C)C)C(=O)N[C@@H](CO)C(=O)N[C@@H](CC(C)C)C(=O)N[C@@H](CC(=O)O)C(=O)N[C@@H](C(=O)N1CCC[C@H]1C(=O)N[C@H](C(=O)N[C@@H](CCCCN)C(=O)N[C@@H](CC(C)C)C(=O)N[C@@H](CCCCNC(=O)COCCOCCNC(=O)COCCOCCNC(=O)CC[C@H](NC(=O)CCCCCCCCCCCCCCCCC(=O)O)C(=O)O)C(=O)N[C@@H](CCCCN)C(=O)N[C@H](C(=O)N[C@@H](CC(C)C)C(=O)N[C@@H](CC(C)C)C(=O)N[C@@H](CCC(=O)O)C(=O)N[C@@H](CCC(N)=O)C(=O)N[C@@H](CCC(=O)O)C(=O)N[C@@H](CCCCN)C(=O)N[C@@H](CCC(N)=O)C(=O)N[C@@H](CCCCN)C(=O)N[C@@H](CCCCN)C(=O)N[C@@H](CCC(N)=O)C(=O)N[C@@H](CCCNC(=N)N)C(=O)N[C@@H](CCC(=O)O)C(=O)N[C@@H](CCC(N)=O)C(=O)N[C@@H](C)C(=O)N[C@@H](CCC(=O)O)C(=O)N[C@H](C(=O)N[C@@H](CC(N)=O)C(=O)N[C@H](C(=O)N[C@@H](CCC(N)=O)C(=O)N[C@H](C(=O)N[C@@H](CC(C)C)C(=O)N[C@@H](C)C(=O)N[C@@H](CCC(N)=O)C(=O)N[C@H](C(N)=O)C(C)C)[C@@H](C)CC)C(C)C)[C@@H](C)O)[C@@H](C)CC)[C@@H](C)CC)C(C)C)C(C)C [compound 103] (Ac-IVLSLD[dV]PIKLK([AEEA-AEEA-γGlu-C18 diacid])KILLEQEKQKKQREQAETNVQILAQV-NH2) | 3 % I | > 250 nM | 3.09 nM
5 | CC[C@H](C)[C@H](NC(C)=O)C(=O)N[C@H](C(=O)N[C@@H](CC(C)C)C(=O)N[C@@H](CO)C(=O)N[C@@H](CC(C)C)C(=O)N[C@@H](CC(=O)O)C(=O)N[C@@H](C(=O)N1CCC[C@H]1C(=O)N[C@H](C(=O)NCC(=O)N[C@@H](CC(C)C)C(=O)N[C@@H](CCCCNC(=O)CC[C@H](NC(=O)CCCCCCCCCCCCCCCCCCC(=O)O)C(=O)O)C(=O)N[C@@H](CCCCN)C(=O)N[C@H](C(=O)N[C@@H](CC(C)C)C(=O)N[C@@H](CC(C)C)C(=O)N[C@@H](CCC(=O)O)C(=O)N[C@@H](CCC(N)=O)C(=O)N[C@@H](CCC(=O)O)C(=O)N[C@@H](CCCCN)C(=O)N[C@@H](CCC(N)=O)C(=O)N[C@@H](CCCCN)C(=O)N[C@@H](CCCCN)C(=O)N[C@@H](CCC(N)=O)C(=O)N[C@@H](CCCNC(=N)N)C(=O)N[C@@H](CCC(=O)O)C(=O)N[C@@H](CCC(N)=O)C(=O)N[C@@H](C)C(=O)N[C@@H](CCC(=O)O)C(=O)N[C@H](C(=O)N[C@@H](CC(N)=O)C(=O)NC1(C(=O)N[C@@H](CCC(N)=O)C(=O)N[C@H](C(=O)N[C@@H](CC(C)C)C(=O)N[C@@H](C)C(=O)N[C@@H](CCC(N)=O)C(=O)N[C@H](C(N)=O)C(C)C)[C@@H](C)CC)CCNCC1)[C@@H](C)O)[C@@H](C)CC)[C@@H](C)CC)C(C)C)C(C)C [compound 227] (Ac-IVLSLD[dV]PIGLK([γGlu-C20 diacid])KILLEQEKQKKQREQAETN[Api]QILAQV-NH2) | 97 % I | – | 0.2 nM
